Data set [1] addresses T1, Ectonucleotide pyrophosphatase/phosphodiesterase family member 1 (Homo sapiens) (UniProt P22413).
T1 sequence (whole entry): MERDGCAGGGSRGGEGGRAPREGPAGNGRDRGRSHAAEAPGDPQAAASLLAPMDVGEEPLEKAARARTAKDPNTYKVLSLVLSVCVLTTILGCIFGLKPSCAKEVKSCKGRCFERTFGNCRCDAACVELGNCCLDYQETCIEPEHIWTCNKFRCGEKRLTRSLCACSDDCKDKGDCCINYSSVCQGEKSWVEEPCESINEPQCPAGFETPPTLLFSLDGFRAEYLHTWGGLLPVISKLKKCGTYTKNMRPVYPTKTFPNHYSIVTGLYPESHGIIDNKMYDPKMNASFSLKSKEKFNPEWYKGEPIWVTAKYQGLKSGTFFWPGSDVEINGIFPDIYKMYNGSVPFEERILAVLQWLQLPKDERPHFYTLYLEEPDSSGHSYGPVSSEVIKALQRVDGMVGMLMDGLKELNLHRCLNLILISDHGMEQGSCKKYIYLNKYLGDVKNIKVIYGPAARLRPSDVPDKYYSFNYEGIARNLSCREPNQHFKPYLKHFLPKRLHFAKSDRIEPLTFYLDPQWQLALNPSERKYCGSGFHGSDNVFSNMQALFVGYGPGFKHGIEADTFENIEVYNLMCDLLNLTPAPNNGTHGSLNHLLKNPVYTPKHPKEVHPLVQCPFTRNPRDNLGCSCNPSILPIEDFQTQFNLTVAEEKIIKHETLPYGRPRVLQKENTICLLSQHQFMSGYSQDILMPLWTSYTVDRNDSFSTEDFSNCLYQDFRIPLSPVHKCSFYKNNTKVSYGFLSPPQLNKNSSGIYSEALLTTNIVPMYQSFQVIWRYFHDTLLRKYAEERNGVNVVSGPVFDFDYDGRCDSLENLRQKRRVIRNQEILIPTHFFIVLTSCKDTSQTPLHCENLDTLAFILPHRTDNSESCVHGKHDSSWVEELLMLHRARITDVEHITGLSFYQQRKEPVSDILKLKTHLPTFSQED
Briefly: Inhibition of ENPP1 (unknown origin) at 10 uM relative to control.

The target in data set [2] is T2, Ectonucleotide pyrophosphatase/phosphodiesterase family member 1 (Homo sapiens, UniProt P22413).
T2 sequence (P22413 whole entry): T1 sequence (whole entry)
Briefly: Inhibition of ENPP1 (unknown origin).

Data set [3] in a line: Metabolic stability in human liver microsomes assessed as compound remaining at 1 uM after 30 mins. The class given is ADME, Microsome. The note with it: read-out: Stability. For orientation: Liver microsomes are a subcellular fraction often used to study metabolism.
A short description of data set [4]: Metabolic stability in rat liver microsomes assessed as compound remaining at 1 uM after 30 mins. The format is ADME, Microsome. The note with it: read-out: Stability.
Data set [5] in a line: Metabolic stability in mouse liver microsomes assessed as compound remaining at 1 uM after 30 mins. The class given is ADME, Microsome. The note with it: read-out: Stability.
Data set [6] addresses T3, CYP1A2 (Homo sapiens, UniProt P05177).
T3 sequence (P05177 whole entry): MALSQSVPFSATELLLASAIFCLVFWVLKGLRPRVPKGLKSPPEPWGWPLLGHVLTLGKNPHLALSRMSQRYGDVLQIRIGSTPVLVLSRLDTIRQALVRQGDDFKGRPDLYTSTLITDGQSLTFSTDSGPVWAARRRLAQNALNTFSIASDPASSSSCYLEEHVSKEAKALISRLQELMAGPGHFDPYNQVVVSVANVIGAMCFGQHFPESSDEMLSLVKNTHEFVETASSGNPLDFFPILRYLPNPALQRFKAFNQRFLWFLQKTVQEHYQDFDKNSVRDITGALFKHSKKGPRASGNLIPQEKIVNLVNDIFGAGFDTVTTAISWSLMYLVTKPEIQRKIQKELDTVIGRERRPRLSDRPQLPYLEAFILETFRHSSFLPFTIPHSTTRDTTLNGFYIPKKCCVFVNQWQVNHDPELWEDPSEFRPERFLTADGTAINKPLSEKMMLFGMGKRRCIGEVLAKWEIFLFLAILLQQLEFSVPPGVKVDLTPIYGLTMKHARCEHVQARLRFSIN
Kind of data set: Inhibition of CYP1A2 (unknown origin) assessed as remaining activity at 10 uM relative to control. The class given is ADME. The note with it: read-out: Activity.

The target in data set [7] is CYP2C9 (Homo sapiens, UniProt P11712). Kind of data set: Inhibition of CYP2C9 (unknown origin) assessed as remaining activity at 10 uM relative to control. The format is ADME. The note with it: read-out: Activity.
Chain of CYP2C9 (P11712 whole entry): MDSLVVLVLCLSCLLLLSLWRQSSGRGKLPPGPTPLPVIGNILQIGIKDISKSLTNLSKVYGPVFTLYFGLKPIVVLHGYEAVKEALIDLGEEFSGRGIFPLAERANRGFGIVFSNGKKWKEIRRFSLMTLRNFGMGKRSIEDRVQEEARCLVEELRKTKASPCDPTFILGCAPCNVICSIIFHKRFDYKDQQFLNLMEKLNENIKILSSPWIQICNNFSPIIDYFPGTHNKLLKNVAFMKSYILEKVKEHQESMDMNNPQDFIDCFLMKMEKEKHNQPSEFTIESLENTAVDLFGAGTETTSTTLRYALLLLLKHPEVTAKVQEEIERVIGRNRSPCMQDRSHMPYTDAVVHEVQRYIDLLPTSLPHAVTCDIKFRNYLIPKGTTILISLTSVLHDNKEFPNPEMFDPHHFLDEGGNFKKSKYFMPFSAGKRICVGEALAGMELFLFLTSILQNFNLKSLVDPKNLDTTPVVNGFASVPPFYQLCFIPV
The target of data set [8] is CYP2C19 (Homo sapiens, UniProt P33261). Kind of data set: Inhibition of CYP2C19 (unknown origin) assessed as remaining activity at 10 uM relative to control. The format is ADME. The note with it: read-out: Activity.
Chain of CYP2C19 (P33261 whole entry): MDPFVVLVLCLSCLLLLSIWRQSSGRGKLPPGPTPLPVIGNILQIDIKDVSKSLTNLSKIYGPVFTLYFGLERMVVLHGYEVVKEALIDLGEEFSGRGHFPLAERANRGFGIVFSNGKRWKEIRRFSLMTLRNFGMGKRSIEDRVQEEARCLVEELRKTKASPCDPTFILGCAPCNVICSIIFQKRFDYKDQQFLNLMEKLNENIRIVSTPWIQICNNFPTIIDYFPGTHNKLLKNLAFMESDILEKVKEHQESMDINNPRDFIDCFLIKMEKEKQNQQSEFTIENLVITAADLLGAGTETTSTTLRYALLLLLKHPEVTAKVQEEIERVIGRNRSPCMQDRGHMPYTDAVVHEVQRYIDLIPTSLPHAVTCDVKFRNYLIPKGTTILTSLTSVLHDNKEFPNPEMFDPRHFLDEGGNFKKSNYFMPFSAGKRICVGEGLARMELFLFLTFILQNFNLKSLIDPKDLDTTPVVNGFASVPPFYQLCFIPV
Data set [9] concerns the target CYP2D6 (Homo sapiens, UniProt P10635). Briefly: Inhibition of CYP2D6 (unknown origin) assessed as remaining activity at 10 uM relative to control. The class given is ADME. The note with it: read-out: Activity.
For data set [10], the target named is CYP3A4 (Homo sapiens, UniProt P08684). Kind of data set: Inhibition of CYP3A4 (unknown origin) assessed as remaining activity at 10 uM relative to control. The note with it: read-out: Activity. The format is ADME.
Chain of CYP3A4 (P08684 whole entry): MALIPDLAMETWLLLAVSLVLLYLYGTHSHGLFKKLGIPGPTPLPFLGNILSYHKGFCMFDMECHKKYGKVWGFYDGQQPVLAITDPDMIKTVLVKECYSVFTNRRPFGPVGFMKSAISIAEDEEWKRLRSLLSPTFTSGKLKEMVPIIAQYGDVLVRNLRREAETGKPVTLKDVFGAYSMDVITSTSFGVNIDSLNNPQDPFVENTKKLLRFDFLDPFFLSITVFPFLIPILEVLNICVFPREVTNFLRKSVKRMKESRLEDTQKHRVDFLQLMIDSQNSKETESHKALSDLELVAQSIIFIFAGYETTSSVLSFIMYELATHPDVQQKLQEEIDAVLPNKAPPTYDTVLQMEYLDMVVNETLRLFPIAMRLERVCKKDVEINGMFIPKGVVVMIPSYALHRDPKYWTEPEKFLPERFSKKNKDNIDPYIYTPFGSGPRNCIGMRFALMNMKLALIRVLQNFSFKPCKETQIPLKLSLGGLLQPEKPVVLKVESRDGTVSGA

Each structure is given as a SMILES string.

In general, inhibition refers to the relative decrease from the control value, in per cent. Usually IC50 stands for the point on the concentration scale where inhibition reaches its midpoint. Low values mean greater potency, high ones weaker potency.

Chain of CYP2D6 (P10635 whole entry): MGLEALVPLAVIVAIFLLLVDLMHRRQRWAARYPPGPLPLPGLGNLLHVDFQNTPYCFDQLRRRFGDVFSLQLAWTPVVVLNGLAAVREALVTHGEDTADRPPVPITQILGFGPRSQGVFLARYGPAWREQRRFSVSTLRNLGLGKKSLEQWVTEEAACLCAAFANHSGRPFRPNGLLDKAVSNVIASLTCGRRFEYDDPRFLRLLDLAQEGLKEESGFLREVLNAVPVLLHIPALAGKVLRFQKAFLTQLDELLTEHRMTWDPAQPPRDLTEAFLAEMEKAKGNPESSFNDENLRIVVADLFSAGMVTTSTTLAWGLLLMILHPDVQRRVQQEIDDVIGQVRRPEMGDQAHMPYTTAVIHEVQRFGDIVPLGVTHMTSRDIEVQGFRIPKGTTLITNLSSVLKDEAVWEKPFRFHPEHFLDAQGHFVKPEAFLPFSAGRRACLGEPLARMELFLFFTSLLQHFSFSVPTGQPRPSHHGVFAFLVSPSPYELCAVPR

Molecule `CN1Cc2c(ncnc2-c2ccc(CNS(N)(=O)=O)cc2)NC1=O` returned an inhibition in data set [1] of 97%. The concentration for half-maximal inhibition (IC50) in [2] was found to be 452 nM.

In data set [1], `CN1Cc2c(ncnc2N2CCC(NS(N)(=O)=O)CC2)NC1=O` had an inhibition of 93%. The IC50 in [2] was determined as 759 nM.

`NS(=O)(=O)NCc1cccc(-c2ccnc3c2CNC(=O)N3)c1` displayed an inhibition in data set [1] of 20%.

With `CN1Cc2c(-c3cccc(NS(N)(=O)=O)c3)ccnc2NC1=O`, the inhibition in [1] was determined as 95%. The molecule also returned an IC50 in [2] of 766 nM.

For the molecule `CN1Cc2c(ncnc2-c2cccc(NS(N)(=O)=O)c2)NC1=O`, the inhibition in data set [1] was 100%. Further, the IC50 in [2] worked out at 360 nM.

`CN1Cc2c(-c3cccc(CNS(N)(=O)=O)c3)ccnc2NC1=O` gave an inhibition in data set [1] of 96%. This molecule also yielded a 50% inhibitory concentration (IC50) in data set [2] of 525 nM.

Molecule `Cc1ccc(S(=O)(=O)NCc2cccc(-c3ccnc4c3CN(C)C(=O)N4)c2)cc1` returned an inhibition in data set [1] of 4%.

Regarding `CN1Cc2c(ncnc2N2CCC(C)(CNS(N)(=O)=O)CC2)NC1=O`, the inhibition in data set [1] was determined as 100%. Moreover, in data set [2], half-maximal inhibition (IC50) was put at 3.7 nM. Moreover, the remaining at 0.5 h, 1 µM in data set [3] amounted to 85.9%; in data set [4], 82.3%; in data set [5], 96.4%. Further, the activity at 10 µM is 94.3% in [6]; 89.4% in [7]; above 100% in data set [8]; 90.9% in [9]; 89.7% in [10].

With `CN1Cc2c(NCc3ccc(NS(N)(=O)=O)cc3)ncnc2NC1=O`, in [1], the inhibition was determined as 100%. Further, 45 nM corresponded to half-maximal inhibition in [2] (IC50).

`NS(=O)(=O)Nc1cccc(-c2ccnc3c2CN(C2CC2)C(=O)N3)c1` returned an inhibition in [1] of 62%. The molecule also gave a half-maximal inhibitory concentration (IC50) in data set [2] of 7460 nM.

`CN1Cc2c(ncnc2N2CCC(C)(CCNS(N)(=O)=O)CC2)NC1=O` yielded an inhibition in [1] of 93%. The half-inhibitory concentration (IC50) in data set [2] is 669 nM.

In the case of `CN1Cc2c(ncnc2N2CCC(C)(NS(N)(=O)=O)CC2)NC1=O`, the inhibition in data set [1] amounted to 98%. Moreover, half-maximal inhibition in data set [2] (IC50) was put at 236 nM.

On to `CN1Cc2c(ncnc2N2CCC3(CC2)CCN(S(N)(=O)=O)C3)NC1=O`, for which the inhibition in [1] is 100%. This molecule showed a 50% inhibitory concentration (IC50) in data set [2] of 164 nM.

As to `NS(=O)(=O)NCc1ccc(-c2ccnc3c2CN(Cc2ccccc2)C(=O)N3)cc1`, the inhibition in [1] came to 9%.

`CN1Cc2c(-c3ccc(CNS(N)(=O)=O)cc3)ccnc2N(Cc2ccccc2)C1=O`: the inhibition in data set [1] was found to be 0%.

On to `CN1Cc2c(-c3ccc(CNS(N)(=O)=O)c(F)c3)ccnc2NC1=O`, for which the inhibition in [1] worked out at 99%. The same molecule yielded an IC50 in data set [2] of 32.3 nM. The remaining at 0.5 h, 1 µM in [3] turned out to be 86.9%; in [4], 86.7%; in data set [5], 91.1%. The activity at 10 µM in [6], in data set [7], in data set [8], in data set [9] and in data set [10] was above 100% each time.

Take `CN1Cc2c(-c3ccc(CN(C)S(N)(=O)=O)cc3)ccnc2NC1=O`: the inhibition in [1] is 80%. In data set [2], this molecule gave an IC50 of 1160 nM.

In data set [1], `CN1Cc2c(ncnc2Nc2ccc(NS(N)(=O)=O)cc2)NC1=O` yielded an inhibition of 67%.

`CN1Cc2c(ncnc2-c2cccc(CNS(N)(=O)=O)c2)NC1=O` registered an inhibition in data set [1] of 99%. Moreover, in data set [2], the half-inhibitory concentration (IC50) is 171 nM.

In data set [1], `Cc1ccc(S(=O)(=O)NCc2cccc(-c3ncnc4c3CN(C)C(=O)N4)c2)cc1` returned an inhibition of 68%.

In turn, `CN1Cc2c(ncnc2-c2ccc(CNS(N)(=O)=O)c(F)c2)NC1=O` yielded an inhibition in [1] of 96%. The IC50 in [2] turned out to be 916 nM.

`NS(=O)(=O)NCc1ccc(-c2ccnc3c2CN(C2CC2)C(=O)N3)cc1` returned an inhibition in [1] of 35%.

With `CN1Cc2c(-c3cccc(CNS(C)(=O)=O)c3)ccnc2NC1=O`, the inhibition in data set [1] was found to be 15%.

`CN1Cc2c(-c3ccc(CNS(N)(=O)=O)cc3)ccnc2N(C)C1=O` displayed an inhibition in data set [1] of 96%. This molecule returned an IC50 in data set [2] of 326 nM.

`CN1Cc2c(-c3ccc(CNS(N)(=O)=O)cc3)ccnc2NC1=O` registered an inhibition in data set [1] of 100%. The same molecule came in with an IC50 in [2] of 389 nM.

The molecule `CN1Cc2c(ncnc2N2CCC(CNS(N)(=O)=O)CC2)NC1=O` gave an inhibition in data set [1] of 100%. The molecule further gave an IC50 in data set [2] of 48 nM.

Molecule `CN1Cc2c(ncnc2N2CCC(CCNS(N)(=O)=O)CC2)NC1=O` gave an inhibition in data set [1] of 96%. For the same molecule, inhibition in data set [2] was half-maximal at 773 nM (IC50).

Consider `CN1Cc2c(N3CCC(CCNS(N)(=O)=O)CC3)ncnc2N(C)C1=O`, for which the inhibition in data set [1] is 62%.

For `CN1Cc2c(ncnc2-c2cccc(CNS(C)(=O)=O)c2)NC1=O`, in data set [1], the inhibition stood at 30%.

These data come from ChEMBL document CHEMBL5236568, “Discovery of 3,4-dihydropyrimido[4,5-d]pyrimidin-2(1H)-one and 3,4-dihydropyrido[2,3-d]pyrimidin-2(1H)-one derivatives as novel ENPP1 inhibitors” (Bioorg Med Chem Lett, 2022).
